In patent publication US20240408169A1 (priority 2023, published 2024):
pIC50: −log10 of the molar value. *1 amine or outer side, *2 acyl side, *3 side chain or, on linkers, in order; H or OH if unused. Where a SMILES comes first, the peptide text is derived from it. Bridges are numbered along the chain shown (N, C = ends). [ ]: non-standard residue; d: D form. The star is where a group is joined. X34 = CN1CC(N2CCN(c3ccc(-c4ccc(Cl)cc4C[C@@H](C(=O)[*:2])N(C)[*:1])cc3)CC2)C1; X55 = CN([C@@H](Cc1cc(Cl)ccc1-c1cnn(CCN2CCOCC2)c1)C(=O)[*:2])[*:1]; NMehhhLys(Me) = CN([C@@H](CCCCCCCN(C)[*:3])C(=O)[*:2])[*:1]; NMe3Pal(2-OiPr,5-Cl) = CN[C@@H](Cc1cc(Cl)cnc1OC(C)C)C(=O)O; NMe(hhhLys) = CN([C@@H](CCCCCCCN[*:3])C(=O)[*:2])[*:1]; X33 = CN([C@@H](Cc1cc(Cl)cc2c1OCCO2)C(=O)[*:2])[*:1]; Cyclobutanecarbonyl(1-CF3) = O=C(C1(C(F)(F)F)CCC1)*; cBuCO(3,3-F2-1-CF3) = O=C(C1(C(F)(F)F)CC(F)(F)C1)*; Pro(trans-4-F) = O=C(O)[C@@H]1C[C@@H](F)CN1; Gly(cPr) = N[C@H](C(=O)O)C1CC1

Columns and labels:
CyclinE1/CDK2 = molecular target: T1, CyclinE1/CDK2 (Homo sapiens, UniProt P24864); assay: Fluorescence Polarization (FP) competitive binding assay, Cyclin E1/Cdk2; conditions: 10 nM Cyclin E1/Cdk2, 2 nM FAM probe; average of 2-3 independent experiments; read-out: Cyclin E FP IC50;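 also: readings taken after two-hour equilibration at room temperature in HEPES buffer with NaCl, DTT, NP-40 and BSA, IC50 fitted from eight-concentration serial dilution series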
T1 construct: purchased Eurofins, discovery 14-475

WI-38 cells = assay: MTT proliferation assay, WI-38; assay type: cell-based; conditions: 3 days compound exposure, 1:3 serial dilution starting at 10 μM;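 also: Eight- or ten-point dilution series, with exposure length chosen to span about three to four cell doublings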
OVCAR3 cells = assay: MTT proliferation assay, OVCAR3; assay type: cell-based; conditions: 5 days compound exposure, 1:3 serial dilution starting at 10 μM;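 also: compound given as an 8- or 10-point series, one day after plating, with exposure covering roughly 3-4 cell doublings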
CyclinA2/CDK2 = molecular target: T2, CyclinA2/CDK2 (Homo sapiens, UniProt P20248); assay: Fluorescence Polarization (FP) competitive binding assay, Cyclin A2/Cdk2; conditions: 8 nM Cyclin A2/Cdk2, 2 nM FAM probe; average of 2-3 independent experiments; read-out: Cyclin A FP IC50;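 also: plates equilibrated two hours at room temperature before polarization reading, IC50 fitted from eight-concentration compound titration curves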
T2 construct: purchased CRELUX Protein Services

CyclinB1/CDK1 = molecular target: T3, CyclinB1/CDK1 (Homo sapiens, UniProt P14635); assay: Fluorescence Polarization (FP) competitive binding assay, Cyclin B1/Cdk1; conditions: 10 nM Cyclin B1/Cdk1, 2 nM FAM probe; average of 2-3 independent experiments; read-out: Cyclin B FP IC50;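 also: fluorescence polarization read after equilibration at room temperature, with IC50 taken from serially diluted dose-response curves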
T3 construct: purchased Eurofins, discovery 14-450

NCI-H1048 cells = assay: MTT proliferation assay, NCI-H1048; assay type: cell-based; conditions: 5 days compound exposure, 1:3 serial dilution starting at 10 μM;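 also: Dose-response in 96-well plates over 8 or 10 concentration points, with exposure spanning 3-4 cell doublings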

CC(C)C[C@@H]1NC(=O)[C@@H](N(C)C(=O)[C@@H](NC(=O)[C@@H]2C[C@@H](F)CN2C(=O)C2(C(F)(F)F)CCC2)C2CC2)CCCCCCCNC(=O)[C@H](Cc2cc(Cl)cnc2OC(C)C)N(C)C1=O [Example 138] ({Cyclobutanecarbonyl(1-CF3)}-[Pro(trans-4-F)][Gly(cPr)][NMe(hhhLys)]L[NMe3Pal(2-OiPr,5-Cl)]; lactam 3-C)
pIC50 (CyclinE1/CDK2): 6.96 | GI50 (WI-38 cells): 6670 nM | GI50 (OVCAR3 cells): 280 nM | pIC50 (CyclinA2/CDK2): 7.52 | pIC50 (CyclinB1/CDK1): 7.70 | GI50 (NCI-H1048 cells): 200 nM

CC(C)C[C@@H]1NC(=O)[C@@H](N(C)C(=O)[C@@H](NC(=O)[C@@H]2C[C@@H](F)CN2C(=O)C2(C(F)(F)F)CC(F)(F)C2)C2CC2)CCCCCCCN(C)C(=O)[C@H](Cc2cc(Cl)ccc2-c2ccc(N3CCN(C4CN(C)C4)CC3)cc2)N(C)C1=O [Example 383, (2S,4R)—N—((S)-2-(((3S,6S,9S)-3-((4-chloro-4′-(4-(1-methylazetidin-3-yl)piperazin-1-yl)-[1,1′-biphenyl]-2-yl)methyl)-6-isobutyl-1,4-dimethyl-2,5,8-trioxo-1,4,7-triazacyclohexadecan-9-yl)(methyl)amino)-1-cyclopropyl-2-oxoethyl)-1-(3,3-difluoro-1-(trifluoromethyl)cyclobutane-1-carbonyl)-4-fluoropyrrolidine-2-carboxamide] ({cBuCO(3,3-F2-1-CF3)}-[Pro(trans-4-F)][Gly(cPr)][NMehhhLys(Me)]L[X34]; lactam 3-C)
pIC50 (CyclinE1/CDK2): 6.28 | GI50 (WI-38 cells): 2700 nM | GI50 (OVCAR3 cells): 10 nM | pIC50 (CyclinA2/CDK2): 7.70 | pIC50 (CyclinB1/CDK1): 7.70 | GI50 (NCI-H1048 cells): 10 nM

CC(C)C[C@@H]1NC(=O)[C@@H](N(C)C(=O)[C@@H](NC(=O)[C@@H]2C[C@@H](F)CN2C(=O)C2(C(F)(F)F)CC(F)(F)C2)C2CC2)CCCCCCCN(C)C(=O)[C@H](Cc2cc(Cl)ccc2-c2cnn(CCN3CCOCC3)c2)N(C)C1=O [Example 256] ({cBuCO(3,3-F2-1-CF3)}-[Pro(trans-4-F)][Gly(cPr)][NMehhhLys(Me)]L[X55]; lactam 3-C)
pIC50 (CyclinE1/CDK2): 6.32 | GI50 (WI-38 cells): 13200 nM | GI50 (OVCAR3 cells): 10 nM | pIC50 (CyclinA2/CDK2): 7.52 | pIC50 (CyclinB1/CDK1): 7.70 | GI50 (NCI-H1048 cells): 10 nM

CC(C)C[C@@H]1NC(=O)[C@@H](N(C)C(=O)[C@@H](NC(=O)[C@@H]2C[C@@H](F)CN2C(=O)C2(C(F)(F)F)CCC2)C2CC2)CCCCCCCN(C)C(=O)[C@H](Cc2cc(Cl)cnc2OC(C)C)N(C)C1=O [Example 119] ({Cyclobutanecarbonyl(1-CF3)}-[Pro(trans-4-F)][Gly(cPr)][NMehhhLys(Me)]L[NMe3Pal(2-OiPr,5-Cl)]; lactam 3-C)
pIC50 (CyclinE1/CDK2): 7.00 | GI50 (WI-38 cells): 8710 nM | GI50 (OVCAR3 cells): 300 nM | pIC50 (CyclinA2/CDK2): 7.52 | pIC50 (CyclinB1/CDK1): 7.70 | GI50 (NCI-H1048 cells): 250 nM

CC(C)C[C@@H]1NC(=O)[C@@H](N(C)C(=O)[C@@H](NC(=O)[C@@H]2C[C@@H](F)CN2C(=O)C2(C(F)(F)F)CC(F)(F)C2)C2CC2)CCCCCCCN(C)C(=O)[C@H](Cc2cc(Cl)cc3c2OCCO3)N(C)C1=O [Example 321] ({cBuCO(3,3-F2-1-CF3)}-[Pro(trans-4-F)][Gly(cPr)][NMehhhLys(Me)]L[X33]; lactam 3-C)
pIC50 (CyclinE1/CDK2): 7.00 | GI50 (WI-38 cells): 89800 nM | GI50 (OVCAR3 cells): 10 nM | pIC50 (CyclinA2/CDK2): 7.70 | pIC50 (CyclinB1/CDK1): 7.70 | GI50 (NCI-H1048 cells): 10 nM

CC(C)C[C@@H]1NC(=O)[C@@H](N(C)C(=O)[C@@H](NC(=O)[C@@H]2C[C@@H](F)CN2C(=O)C2(C(F)(F)F)CC(F)(F)C2)C2CC2)CC=CCCCCNC(=O)[C@H](Cc2cc(Cl)ccc2C2=CCN(C)CC2)N(C)C1=O (single isomer, unassigned) [Example 56-P1]
GI50 (WI-38 cells): 5760 nM | GI50 (OVCAR3 cells): 1020 nM | pIC50 (CyclinA2/CDK2): 6.07 | pIC50 (CyclinB1/CDK1): 7.40 | GI50 (NCI-H1048 cells): 470 nM

CC(C)C[C@@H]1NC(=O)[C@@H](N(C)C(=O)[C@@H](NC(=O)[C@@H]2C[C@@H](F)CN2C(=O)C2(C(F)(F)F)CC(F)(F)C2)C2CC2)CC=CCCCCNC(=O)[C@H](Cc2cc(Cl)ccc2C2=CCN(C)CC2)N(C)C1=O (single isomer, unassigned) [Example 56-P2]
GI50 (WI-38 cells): 3760 nM | GI50 (OVCAR3 cells): 430 nM | pIC50 (CyclinA2/CDK2): 6.23 | pIC50 (CyclinB1/CDK1): 7.52 | GI50 (NCI-H1048 cells): 190 nM
